Measured values taken from patent US20220213099A1, “PRODRUG COMPOUNDS” (BRISTOL-MYERS SQUIBB COMPANY, priority 2019, published 2022).
Where a name gives a salt, the structure may show the parent alone. Read-outs that look alike come from different tables or passages of the source.

Tests used:
[1] = Solubility evaluation in aqueous buffer; format: physicochemical; conditions: aqueous buffer, 25 °C, thermodynamic from solid, about 24 hours equilibration
Procedure: The solid powder of an individual prodrug was equilibrated in aqueous buffers of pH 1, 4 and 6.5 at 25° C. for about 24 hours. After equilibration, the excess solid was separated by filtration using 0.45 μm membrane filter and the filtrate was collected in suitable glass vial. The filtrate was diluted appropriately using respective buffers/diluent and analyzed by a reversed phase LC method with UV detection.

[2] = Stability evaluation in aqueous buffer; format: physicochemical; conditions: aqueous buffer, 37° C., about 50 μg/mL, about 15% v/v acetonitrile
Procedure: The stability study of an individual prodrug was conducted with about 50 μg/mL solutions in aqueous buffers of pH 1 (0.1 M HCl), 4 (acetate buffer) and 6.5 (phosphate buffer) at 37° C. for 24 hours. About 15% v/v acetonitrile was used in these pH buffers as a co-solvent to obtain clear solutions of prodrugs. The sample analysis was carried out using a generic reversed phase liquid chromatographic (LC) method with UV detection. The area percent (AP) loss of the prodrug peak was quantified as a function of time. The appearance of parent peak was identified from the chromatographic retention time. The half-life (t1/2, h) of the prodrug was calculated by using a pseudo-first order equation from a AP loss vs time plot.

rat rIALP = test: Recombinant intestinal alkaline phosphatase (rIALP) assay, rat; format: in vitro ADME; conditions: 100 mM Tris-HCl buffer pH 7.4, 37° C., 120 minutes incubation, read-out: t1/2 in rat rIALP
Procedure: (§1) Examples 8 and 9 were evaluated in this assay. To assess the potential for generation of parent drug from the phosphate prodrugs, 100 μL of rIALP was dissolved in 100 mM Tris-HCl buffer (pH 7.4) and it was added to 100 μL of freshly prepared prodrug solution (10 mM) prepared in the same buffer. Incubations were performed in triplicate using 96-well plates (Waters, Milford, Mass.) at 37° C. in a shaking water bath (Julabo, Allentown, Pa.). The prodrug and enzyme solution were pre-warmed at 37° C. before the reaction was initiated by addition of substrate. The incubation was performed for 120 minutes with […] taken at 0, 5, 10, 15, 30, 60, 90, and 120 minutes. The assays were terminated at designated time points by the addition of 200 μL of ice-cold acetonitrile containing internal standard followed by centrifugation at 4000 g for 4 minutes. The supernatant was transferred to a new 96-well plate for analysis by ultra-performance liquid chromatography combined with tandem mass spectrometry (UPLC-MS/MS). The t1/2 value for each prodrug/protein combination was determined from the natural logarithm of percent remaining versus time plots.

human rIALP = target: T1, human rIALP (Homo sapiens, UniProt P09923); test: Recombinant intestinal alkaline phosphatase (rIALP) assay, human; format: in vitro ADME; conditions: 100 mM Tris-HCl buffer pH 7.4, 37° C., 120 minutes incubation, read-out: t1/2 in human rIALP
T1 sequence (P09923 20-503 limits assumed): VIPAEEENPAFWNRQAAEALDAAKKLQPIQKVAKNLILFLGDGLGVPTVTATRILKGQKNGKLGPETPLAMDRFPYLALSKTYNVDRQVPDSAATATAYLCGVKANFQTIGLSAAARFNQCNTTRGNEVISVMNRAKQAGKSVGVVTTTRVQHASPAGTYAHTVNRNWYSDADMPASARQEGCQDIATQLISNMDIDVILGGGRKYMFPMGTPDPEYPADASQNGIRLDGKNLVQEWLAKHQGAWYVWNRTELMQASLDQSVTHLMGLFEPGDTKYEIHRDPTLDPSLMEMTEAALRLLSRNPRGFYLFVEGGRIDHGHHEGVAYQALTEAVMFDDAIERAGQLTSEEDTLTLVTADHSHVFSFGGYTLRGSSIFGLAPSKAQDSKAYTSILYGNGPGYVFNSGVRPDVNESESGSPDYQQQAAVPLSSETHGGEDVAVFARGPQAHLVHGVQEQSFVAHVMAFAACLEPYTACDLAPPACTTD
Procedure: as §1

- solubility ([1]; pH 1, simulated gastric fluid, aqueous buffer pH 1, 25° C., read-out: Solubility (mg/mL) at 25° C. pH 1): > 1.14 mg/mL
- solubility ([1]; pH 4, aqueous buffer, aqueous buffer pH 4, 25° C., read-out: Solubility (mg/mL) at 25° C. pH 4): 0.85 mg/mL
- solubility ([1]; pH 6.5, aqueous buffer, aqueous buffer pH 6.5, 25° C., read-out: Solubility (mg/mL) at 25° C. pH 6.5): 1.34 mg/mL
- half-life ([2]; pH 1, pH 1 (0.1 M HCl), read-out: Stability (t1/2, h) at 37° C. pH 1 (converted)): > 500 h
- half-life ([2]; pH 4, pH 4 (acetate buffer), read-out: Stability (t1/2, h) at 37° C. pH 4 (converted)): > 500 h
- half-life ([2]; pH 6.5, pH 6.5 (phosphate buffer), read-out: Stability (t1/2, h) at 37° C. pH 6.5 (converted)): > 500 h
- half-life at 5 mM (rat rIALP): < 0.00347 days
- half-life at 5 mM (human rIALP): < 0.00347 days
Structure (SMILES): Cc1c(-c2[nH]c3ccc(C4CC[N+](COP(=O)(O)O)(CC(N)=O)CC4)cc3c2C(C)C)cn2ncnc2c1C (single isomer, unassigned) [Example 9, 1-(2-Amino-2-oxoethyl)-4-(2-(7,8-dimethyl-[1,2,4]triazolo[1,5-a]pyridin-6-yl)-3-isopropyl-1H-indol-5-yl)-1-((phosphonooxy)methyl)piperidin-1-ium trifluoroacetate]
